Laboratory results from patent US7947279B2, “Peptide having hydrolase activity” (The Trustees of Columbia University in the City of New York, priority 2005, dated 2011).
“Also recorded” adds a separate entry of the source.

Tests used:
[1] = system: CA1-LTP in hippocampal slices; test: CA1-LTP in hippocampal slices (theta-burst); type: cell-based, mouse
[2] = system: BST at the Schaffer collateral/CA1 connection of hippocampal slices; test: Basal synaptic transmission (BST) in hippocampal slices; type: cell-based, mouse
mice (WT and APP/PS1) = test: Contextual and cued fear conditioning; type: in vivo, mouse; conditions: for freezing time in contextual learning: at 21 days
Method: Behavioral Studies: Fear conditioning was performed in a conditioning chamber as previously described (Bourtchuladze et al., 1994; Gong et al., 2004). For contextual and cued fear conditioning mice were placed in the conditioning chamber for 2 min before the onset of a discrete tone (CS) (a 30 sec sound at 2800 Hz and 85 dB). In the last 2 sec of the CS, mice were given a foot shock (US) of 0.50 mA for 2 sec through the bars of the floor. After the CS/US pairing, the mice were left in the conditioning chamber for another 30 sec and then placed back in their home cages. Freezing behavior, defined as the absence of all movement except for that necessitated by breathing, was scored using Freezeview software. To evaluate contextual fear learning, freezing was measured for 5 min in the chamber in which the mice were trained 24 hrs after training. To evaluate cued fear conditioning, following contextual testing, the mice were placed in a novel context (triangular cage with smooth flat floor and with vanilla odorant) for 2 min (pre-CS test), after which they were exposed to the CS for 3 min (CS test), and freezing was measured. To evaluate the contextual fear over time, mice were placed for 5 min in the chamber in which the mice were trained 7- 14- 21-days after training. Sensory perception of the shock was determined through threshold assessment. Each animal was placed individually into the conditioning chamber. […] Animal behavior was evaluated for the first visible response to the shock (flinch), the first extreme motor response (run/jump), and the first vocalized distress (scream). Threshold to flinching, jumping, and screaming was quantified for each animal by averaging of the shock intensity at which each animal manifested a behavioral response of that type to the foot shock. Visual, motor, and motivation skills were also tested with visible platform training by measuring the time and the speed to reach a visible platform placed within a pool filled with water (Gong et al., 2004). Both time to reach the platform and swimming speed were recorded and analyzed with a video tracking system (HVS-2020, HVS Image, UK). No difference was observed among different groups of mice in the experiments in which fear conditioning was tested both in the presence of LDN and TAT fusion proteins. To decide the time of administration of LDN, experiments were performed in which the inhibitor was injected intra-peritoneally at different intervals (4 hrs before, 1 hr before, 1 hr after and 4 hrs after) from the electric shock. During the training phase, no difference was found in the freezing of LDN- or vehicle-injected mice.

[3] = system: SY5Y neuroblastoma cells transfected with a degron CL1-GFP expression vector; test: Proteasome reporter assay (GFP^u); type: cell-based, human; conditions: substance alone
Method: Proteasome reporter assays. In this cell line, human neuroblastoma SH-SY5Y cells were permanently transfected with reporter construct consisting of green fluorescent protein (GFP) conjugated at its C-terminus to a short degron sequence (CL-1) (Gilon et al., 1998). […] The SY5Y-GFP^u cells were grown in 1×DMEM (Invitrogen) supplemented with 15% fetal bovine serum (JRH), 1× penicillin/streptomycin (Gibco). After indicated treatments, GFP^u concentrations were assayed by densitometric analysis of immunoblots of total protein extracts (10 ug/lane) using monoclonal GFP antibodies (Santa Cruz Biotechnology) and visualized with HRP-conjugated secondary antibodies and ECL (Pierce). Loading equalization was normalized by probing blots with anti-ERK antibodies (Santa Cruz Biotechnology).

phospho-CREB at Ser-133 = test: Phospho-CREB (Ser-133) Western blot in hippocampal cultures; type: cell-based, rat; conditions: LDN 10 μM
Method: Western Blotting: Protein levels were assessed using standard procedures. Protein extraction was performed using buffer with and without detergent. For the extraction of protein using detergent, hippocampal tissues and cultured hippocampal neurons (5 DIV) were homogenized in RIPA buffer (50 mM Tris-HCl pH 7.4, 1% Triton X-100, 1% sodium deoxycholate, 0.1% SDS, 150 mM sodium chloride, 10 mM sodium fluoride, 30 mM sodium pyrophosphate, 50 mM sodium orthovanadate) containing 1× complete protease inhibitor (Roche) and 1 mM phenylmethylsulfonyl fluoride (PMSF). For extraction of proteins without detergent, hippocampal extracts were homogenized with disposable dounce homogenizers in buffer A, containing 10 mM HEPES pH 7.3, 300 mM sucrose, protease 1× complete protease inhibitor (Roche) and PMSF. After centrifugation at 10,000×g supernatant proteins were resolved on a 8% or 4-20% gradient Tris-Glycine gel, transferred onto PVDF or nitrocellulose membrane and blocked in 5% skim milk in PBS-Tween 0.1% (PBS-T). Membranes were probed with primary antibodies, and after washing with PBS-T incubated with an appropriate HRP-conjugated secondary antibody. The following antibodies were used: mouse monoclonal anti-ubiquitin (Chemicon), rabbit polyclonal anti-pCREB (Upstate Biotech.), rabbit polyclonal anti-PKA-RIIα (Santa Cruz Biotech. Inc), mouse monoclonal anti-Uch-L1 (Novocastra), monoclonal mouse anti-HA (Santa Cruz Biotech. Inc), and anti-PKA IIα. Detection was performed using HRP-conjugated secondary antibodies (Pierce, Rockford, Ill.). To control loading and transfer, protein immunoreactivities were normalized against total extracellular signal-regulated protein kinases (ERK1/2) levels with a rabbit analyzed using a rabbit polyclonal anti-ERK1/2 antibody (Cell Signaling Technology, Inc). NIH IMAGE was used to analyze the scanned blots and quantify the intensity of the protein signals.
Preparation of Cell Cultures. Hippocampal cell cultures were prepared as previously described (Vitolo et al., 2002). In cell culture experiments fetuses at embryonic day 18 from timed pregnant Sprague-Dawley rats (Taconic Farms) were used. Fetuses were sacrificed and the hippocampi removed. Neurons were then dissociated, plated on 6 well-plates coated with poly-L-lysine and maintained in a defined serum-free medium containing minimum essential medium supplemented with N-2, glucose, albumin, pyruvic acid, antibiotics and antimycotics. […] 5 DIV cells were used for the experiments.

[4] = LDN 5 μM, 15 min, listed as LDN

With `CC(=O)O/N=C1\C(=O)N(Cc2cc(Cl)ccc2Cl)c2ccc(Cl)cc21` [LDN-57444, reference compound] the “LTP” value ([1]; LDN 1 μM, 2-4 hr, listed as LDN) was “has no effect”, the “LTP” value ([1]; LDN 2.7 μM, 2-4 hr, listed as LDN) was “reduces CA1-LTP” and the “LTP in Aβ-treated slices” value ([1]; LDN 5 μM for 2 hrs, 200 nM Aβ, listed as LDN) was “does not further reduce potentiation; also recorded: did not further reduce LTP”. For the same molecule, the “LTP in APP/PS1 slices” value ([1]; LDN 5 μM for 2 hrs, listed as LDN) was “does not further reduce potentiation; also recorded: did not further reduce LTP”, the “LTP” value ([1]; LDN 5 μM, 15 min) was “did not affect BST or LTP; also recorded: did not affect CA1-LTP” and the “LTP” value [1, 4] was “did not affect basal synaptic transmission (BST) or LTP; also recorded: did not affect CA1-LTP”. The “LTP” value ([1]; LDN 5 μM, 2 hrs) was “blocked”, the “LTP” value ([1]; LDN 5 μM, 2 hrs, listed as LDN) was “diminished LTP; also recorded: reduced” and the “LTP” value ([1]; LDN 5 μM, 4 hrs) was “strongly reduced”. For the same molecule, the “LTP” value ([1]; LDN 5 μM, 4 hrs, listed as LDN) was “reduced both; also recorded: strongly reduced”, the LTP ([1]; LDN-57444, 2 hour exposure) was “approximately 70 % of vehicle treated slices” and the LTP ([1]; LDN-57444, 4 hour exposure) was ~65 % of vehicle treated slices. For the same molecule, the “baseline transmission in slices without tetanic stimulation” value ([1]; non-tetanized slices) was “did not affect baseline transmission”, the “BST” value ([2]; LDN 2.7 μM and 1 μM, 2-4 hr, listed as LDN) was “normal BST; also recorded: did not affect CA1-BST” and the “BST” value ([2]; LDN 5 μM, 15 min) was “did not affect BST or LTP; also recorded: did not affect CA1-BST”. For the same molecule, the “BST” value [2, 4] was “did not affect basal synaptic transmission (BST) or LTP; also recorded: does not affect CA1-BST”, the “BST” value ([2]; LDN 5 μM, 2 hrs) was “without affecting BST; also recorded: not affected” and the “BST” value ([2]; LDN 5 μM, 2 hrs, listed as LDN) was “without affecting BST; also recorded: not affected”. For the same molecule, the “BST” value ([2]; LDN 5 μM, 4 hrs) was “strongly reduced”, the “BST” value ([2]; LDN 5 μM, 4 hrs, listed as LDN) was “reduced both; also recorded: strongly reduced” and the BST ([2]; LDN-57444, 4 hour exposure) was “approximately 40 % of vehicle treated slices”. For the same molecule, the “cued fear conditioning” value (mice (WT and APP/PS1); LDN 0.4 mg/kg i.p.) was “did not show a difference”, the “freezing time in contextual conditioning” value (mice (WT and APP/PS1); LDN 0.4 mg/kg i.p. 4 hrs after the electric shock, twenty-four hours later) was 74 % of that of vehicle-treated mice and the “freezing time in contextual learning” value (mice (WT and APP/PS1); LDN 0.4 mg/kg i.p.) was “about 70 % of vehicle-treated mice”. For the same molecule, the “freezing time in contextual learning” value (mice (WT and APP/PS1); LDN 0.4 mg/kg i.p., listed as LDN) was 70 % of vehicle-treated mice, the “contextual conditioning performance” value (mice (WT and APP/PS1); LDN 0.4 mg/kg i.p., context at 1, 7, 14 and 21 days after training) was “worsened contextual conditioning performance” and the “contextual learning” value (mice (WT and APP/PS1); LDN injected at 4 and 1 hour before the shock or at 1 hour after the shock) was “failed to impair contextual learning”. For the same molecule, the “freezing during the training phase” value (mice (WT and APP/PS1); LDN- versus vehicle-injected mice) was “no difference”, the “GFP^u levels” value [3] was “much larger increase in GFP” and the “phospho-CREB enhancement / beneficial effect of TAT-HA-Uch-L1” value (phospho-CREB at Ser-133) was “blocked the beneficial effect of TAT-HA-Uch-L1; also recorded: did not allow the enhancement of phospho-CREB”. For the same molecule, the “phospho-CREB enhancement / beneficial effect of TAT-HA-Uch-L1” value (phospho-CREB at Ser-133; listed as LDN) was “blocked the beneficial effect of TAT-HA-Uch-L1; also recorded: did not allow the enhancement of phospho-CREB”.
